Measured values as given in publication PMC11883000, “Structure-function relationship of ASH1L and histone H3K36 and H3K4 methylation” (Nature Communications, 2025).
Like-named read-outs stand apart in the source and are kept apart here. Values belong to the compound of their own block, whether it stands above or below them.

How the values were obtained:
[1] = system: H3K4me3-NCP; format: binding; conditions: EMSA; 0.025 µM nucleosome, increasing protein, pH 7.5, on ice 5 min
[2] = biological target: T1, ASH1LPHD (Homo sapiens, UniProt Q9NR48); test: Tryptophan fluorescence binding, WT ASH1LPHD
T1 construct: ASH1LPHD (aa 2579-2629); GST (N, cleaved yes); made in house; host or cells: E. coli BL21 or Rosetta2 (DE3) pLysS
From the text: Human ASH1L constructs ASH1LPHD (aa 2579-2629), ASH1LBD (aa 2430-2564) and ASH1LPHD-BAH (aa 2579- 2794 and 2579-2834), ASH1LBD-PHD (aa 2430-2629) were cloned into pDEST15 vector with a TEV or Precission cleavage site. ASH1LBD-PHD-BAH (aa 2436-2833), ASH1LSET-BD-PHD (aa 2074-2629) and ASH1LSET-BD-PHD-BAH (aa 2069-2834) were in pGEX6P-1 and pMOCR vectors. Mutants of Ash1LPHD and Ash1LBD were generated following Quikchange mutagenesis protocols. Each construct was expressed in BL21 or Rosetta2 (DE3) pLysS cells in LB or minimal media supplemented with ^15NH4Cl (and ZnCl2 for PHD finger-containing constructs). Cultures were induced with 0.5 mM IPTG and grown for 18 h at 16 °C. After harvesting, the GST-tagged proteins were purified using glutathione agarose (Thermo Scientific) in 20 mM Tris pH 7.5, 150-500 mM NaCl, 5 mM MgCl2 and 2 mM DTT. For experiments requiring GST-tagged constructs, the proteins were eluted in a buffer containing 20 mM Tris pH 7.5, 150-500 mM NaCl, 5 mM MgCl2, 50 mM reduced glutathione and 2 mM DTT. For crystallography and biochemical assays, the GST tag was cleaved overnight at 4 °C with TEV or PreScission protease, and proteins were further purified by size exclusion chromatography (SEC). Protein fractions were checked for purity by SDS-PAGE and concentrated in a concentrator (Millipore).
(§1) Fluorescence spectra were collected at 25 °C on a Fluoromax-3 and Fluoromax-4 plus C spectrofluorometers (HORIBA). […] Emission spectra were recorded between 320 and 360 nm with a 0.5 nm step size and a 0.5 s integration time. The Kd values were determined using a nonlinear least-squares analysis and the equation:3 ΔI=ΔImax((L+P+Kd)−L+P+Kd^2−4[P][L])/2[P] where [L] is concentration of the peptide, [P] is concentration of the protein, ΔI is the observed change of signal intensity, and ΔImax is the difference in signal intensity of the free and bound states of the protein. The Kd values were averaged over three independent experiments with error calculated as the standard deviation between the runs.

[3] = biological target: T2, ASH1LPHD D2584A (Homo sapiens, UniProt Q9NR48, D2584A); test: Tryptophan fluorescence binding, ASH1LPHD D2584A; conditions: 25 °C, pH 7.5, mean ± S.D., three independent experiments
T2 construct: ASH1LPHD (aa 2579-2629); GST (N, cleaved yes); made in house; host or cells: E. coli BL21 or Rosetta2 (DE3) pLysS
From the text: (§2) Human ASH1L constructs ASH1LPHD (aa 2579-2629), ASH1LBD (aa 2430-2564) and ASH1LPHD-BAH (aa 2579- 2794 and 2579-2834), ASH1LBD-PHD (aa 2430-2629) were cloned into pDEST15 vector with a TEV or Precission cleavage site. ASH1LBD-PHD-BAH (aa 2436-2833), ASH1LSET-BD-PHD (aa 2074-2629) and ASH1LSET-BD-PHD-BAH (aa 2069-2834) were in pGEX6P-1 and pMOCR vectors. Mutants of Ash1LPHD and Ash1LBD were generated following Quikchange mutagenesis protocols. Each construct was expressed in BL21 or Rosetta2 (DE3) pLysS cells in LB or minimal media supplemented with ^15NH4Cl (and ZnCl2 for PHD finger-containing constructs). Cultures were induced with 0.5 mM IPTG and grown for 18 h at 16 °C. […]
as §1

[4] = biological target: T3, ASH1LPHD D2595A (Homo sapiens, UniProt Q9NR48, D2595A); test: Tryptophan fluorescence binding, ASH1LPHD D2595A; conditions: 25 °C, pH 7.5, mean ± S.D., three independent experiments
T3 construct: ASH1LPHD (aa 2579-2629); GST (N, cleaved yes); made in house; host or cells: E. coli BL21 or Rosetta2 (DE3) pLysS
From the text: as §2, §1

[5] = biological target: T4, ASH1LPHD Q2601K (Homo sapiens, UniProt Q9NR48, Q2601K); test: Tryptophan fluorescence binding, ASH1LPHD Q2601K; conditions: 25 °C, pH 7.5, mean ± S.D., three independent experiments
T4 construct: ASH1LPHD (aa 2579-2629); GST (N, cleaved yes); made in house; host or cells: E. coli BL21 or Rosetta2 (DE3) pLysS
From the text: as §2, §1

[6] = biological target: T5, ASH1LPHD-BAH (Homo sapiens, UniProt Q9NR48); test: Tryptophan fluorescence binding, ASH1LPHD-BAH; conditions: 25 °C, pH 7.5, mean ± S.D., three independent experiments
T5 construct: ASH1LPHD-BAH (aa 2579- 2794 and 2579-2834); GST (N, cleaved yes); made in house; host or cells: E. coli BL21 or Rosetta2 (DE3) pLysS
From the text: as §2, §1

[7] = system: H3K4me3-NCP; test: Liquid HMT assay of GST-ASH1LSET-BD-PHD on H3K4me3-nucleosomes; format: biochemical; conditions: D2595K mutant compared to WT ASH1LSET-BD-PHD on H3K4me3-NCP; presence or absence of MRG15; 3H-SAM, 60 min at 30 °C, pH 8
Experimental: Fig. 6 Binding of ASH1LPHD to H3K4me3 inhibits enzymatic activity of ASH1L. a Overlay of ^1H,^15N HSQC spectra of ASH1LBD in the absence (black) or presence of the indicated molar ratios of ASH1LSET. b Overlay of ^1H,^15N HSQC spectra of ASH1LPHD in the absence (black) or presence (blue) of ASH1LSET. c Liquid histone methyltransferase (HMT) assays of GST-ASH1LSET-BD-PHD-BAH on recombinant nucleosomes carrying H3K4me3 or unmodified NCP. GST-ASH1LSET-BD-PHD-BAH was pre-incubated with substrate and MRG15 (or BSA) prior addition of ^3H S-adenosyl methionine. GST, control. […] Live cells were counted over a 6-day time course. […]
Recombinant ASH1L (WT and mutant) constructs, tagged at the N-terminus with GST and at the C-terminus with 6XHis, were generated and purified using Sepharose beads and Ni-NTA beads. […] Methyltransferase activity of the proteins was measured with 0.5 μCi of ^3H labeled S-adenosyl methionine (18 Ci/mmol; PerkinElmer Life Sciences). […] The reactions were captured on P81 filter paper, the free ^3H-labeled SAM was washed away, and the paper was analyzed by Liquid Scintillation.

[8] = biological target: T1, ASH1LPHD; test: NMR titration (1H,15N HSQC), WT ASH1LPHD; format: binding; conditions: unlabeled ASH1LSET titrated into 15N-labeled ASH1LPHD
From the text: as §2, with “°C. After harvesting, the GST-tagged proteins were purified using glutathione agarose (Thermo Scientific) in 20 mM Tris pH 7.5, 150-500 mM NaCl, 5 mM MgCl2 and 2 mM DTT.” for “°C.”
(§3) NMR experiments were performed at 298 K on Varian 600 MHz and 900 MHZ spectrometers equipped with a cryogenic probe. Chemical shift perturbation experiments were carried out using 0.1–0.2 mM uniformly ^15N-labeled wild type or mutant proteins in 25 mM Tris pH 7.5 buffer, supplemented with 150 mM NaCl, 5 mM DTT and 5-7% D2O. ^1H,^15N heteronuclear single quantum coherence (HSQC) or transverse relaxation optimized spectroscopy (TROSY) spectra were recorded in the absence and presence of increasing concentrations of ligands. […]

[9] = system: ASH1LBD; test: NMR titration (1H,15N HSQC), ASH1LBD; format: binding, Human; conditions: unlabeled ASH1LSET titrated into 15N-labeled ASH1LBD
From the text: as §2, with “°C. After harvesting, the GST-tagged proteins were purified using glutathione agarose (Thermo Scientific) in 20 mM Tris pH 7.5, 150-500 mM NaCl, 5 mM MgCl2 and 2 mM DTT.” for “°C.”
as §3

[10] = WT, summary of tryptophan fluorescence and MST, di- and trimethylated peptides, read-out: binding affinity

Compound: ASH1LSET-BD-PHD D2595K mutant: D2595K mutant of ASH1LSET-BD-PHD (aa 2074-2629)
methyltransferase activity [7]: increase in the methyltransferase activity

Compound: ASH1LSET: isolated unlabeled ASH1LSET domain
interaction of ASH1LSET with ASH1LPHD (CSPs) [8]: does not interact with ASH1LPHD | interaction of ASH1LSET with ASH1LBD (CSPs) [9]: direct contact with ASH1LBD

The remaining lines, values ahead:

binding to H3K4me3-NCP [1]: incapable
Compound: ASH1LPHD: Human ASH1L PHD finger (aa 2579-2629) (HEKDDDVIRCICGLYKDEGLMIQCDKCMVWQHCDCMGVNSDVEHYLCEQCD; left off: GST, end not stated, cleaved)

Kd [2, 10]: 1000 to 2000 nM | Kd [3]: 5000 to 7000 nM | Kd [4]: 5000 to 7000 nM | Kd [5]: 1000 ± 300 nM | Kd [6]: 1000 ± 400 nM
Compound: C[C@H](N)C(=O)N[C@@H](CCCNC(=N)N)C(=O)N[C@H](C(=O)N[C@@H](CCCC[N+](C)(C)C)C(=O)N[C@@H](CCC(N)=O)C(=O)N[C@H](C(=O)N[C@@H](C)C(=O)N[C@@H](CCCNC(=N)N)C(=O)N[C@@H](CCCCN)C(=O)N[C@@H](CO)C(=O)N[C@H](C(=O)NCC(=O)O)[C@@H](C)O)[C@@H](C)O)[C@@H](C)O [H3K4me3]

Kd [2, 10]: 1000 to 2000 nM | Kd ([2]; tryptophan fluorescence, H3 aa 1-12, excitation 295 nm, emission 320-360 nm, 25 °C, 0.5–2 μM protein, 20–25 mM Tris pH 7.5, 150 mM NaCl, 3 mM DTT, mean ± S.D., three independent experiments, read-out: Kd): 1000 ± 400 nM
Compound: C[C@H](N)C(=O)N[C@@H](CCCNC(=N)N)C(=O)N[C@H](C(=O)N[C@@H](CCCCN(C)C)C(=O)N[C@@H](CCC(N)=O)C(=O)N[C@H](C(=O)N[C@@H](C)C(=O)N[C@@H](CCCNC(=N)N)C(=O)N[C@@H](CCCCN)C(=O)N[C@@H](CO)C(=O)N[C@H](C(=O)NCC(=O)O)[C@@H](C)O)[C@@H](C)O)[C@@H](C)O [H3K4me2]
